According to ChEMBL document CHEMBL1156654, “Antineoplastic agents. 552. Oxidation of combretastatin A-1: trapping the o-quinone intermediate considered the metabolic product of the corresponding phosphate prodrug” (2008):
Converted amounts (≈) assume the structure as drawn.

Columns and labels:
Format in all cases: functional
P388 = assay: Growth inhibition of mouse P388 cells; conditions: read-out: ED50 (the source's name)
[1] = Antitumor activity against mouse MHEC5T cells xenografted in SCID mouse assessed as reduction in tumor blood flow at 100 mg/kg after 1 hrs; parameters: scale not given: the % may be the effect or the level left
[2] = Antitumor activity against mouse MHEC5T cells xenografted in SCID mouse assessed as reduction in tumor blood flow at 100 mg/kg after 24 hrs; parameters: scale not given: the % may be the effect or the level left
[3] = Antitumor activity against mouse MHEC5T cells xenografted in SCID mouse assessed as reduction in tumor blood flow at 100 mg/kg after 72 hrs; parameters: scale not given: the % may be the effect or the level left

EC50 (P388) [µg/mL] | Structure (SMILES) | Activity [1] [%] | Activity [2] [%] | Activity [3] [%]
0.2 (≈ 0.432 µM) | COc1cc2nc3c(/C=C\c4cc(OC)c(OC)c(OC)c4)ccc(OC)c3nc2cc1OC | – | – | –
0.2 (≈ 0.497 µM) | COc1cc(/C=C\c2ccc(OC)c3nc4ccccc4nc23)cc(OC)c1OC | – | – | –
– | COc1cc(/C=C\c2ccc(OC)c(OP(=O)([O-])[O-])c2OP(=O)([O-])[O-])cc(OC)c1OC.[Na+].[Na+].[Na+].[Na+] | 50 | 90 | 27
